Test results from patent publication EP2526935A1, “Hydrazidomycins” (Oncotest GmbH, priority 2011, dated 2012).

Legend:
Type in all cases: cell-based
Pseudomonas aeruginosa = assay: antimicrobial activity test; settings: at a concentration of 1.0 mg/mL
Escherichia coli = assay: antimicrobial activity test; settings: at a concentration of 1.0 mg/mL
Staphylococcus aureus = assay: antimicrobial activity test; settings: at a concentration of 1.0 mg/mL
[1] = system: panel of 12 human tumor cell lines; assay: modified propidium iodide cytotoxicity assay, panel of 12 human tumor cell lines; settings: geometric mean over panel of 12 human tumor cell lines; read-out: Cytotoxic potency (geometric mean IC50)
Text: (§1) Antiproliferative and cytotoxic assays. A modified propidium iodide assay was used to determine the cytotoxic activity of compounds hydrazidomycin A, B, and C against 12 to 42 cell lines derived from solid human tumors. The test procedure has been as is known in the art. Cell lines tested were derived from patient tumors engrafted as a subcutaneously growing tumor in NMRI nu/nu mice, or obtained from the American Type Culture Collection, Rockville, MD, USA, National Cancer Institute, Bethesda, MD, USA, or Deutsche Sammlung von Mikroorganismen und Zellkulturen, Braunschweig. The IC50 was determined by four parameter non-linear curve fit after plotting compound concentration versus fluorescence intensity, and is given as the concentration of test compound that gives a response (inhibition of cell growth) half way between the top and bottom plateau of the sigmoidal concentration-response curve (i.e. the inflection point of the curve).

Enterococcus faecalis = assay: antimicrobial activity test; settings: at a concentration of 1.0 mg/mL
[2] = system: panel of 42 human tumor cell lines; assay: modified propidium iodide cytotoxicity assay, panel of 42 human tumor cell lines; settings: for IC50: mean over panel of 42 tumor cell lines, 15 histotypes
Text: as §1

HCT-116 = assay: modified propidium iodide cytotoxicity assay; settings: Homo sapiens, Colon
Text: as §1

TE671 = assay: modified propidium iodide cytotoxicity assay; settings: Homo sapiens, TE-671, Sarcoma
Text: as §1

MAXF 401NL = assay: modified propidium iodide cytotoxicity assay; settings: Homo sapiens, Breast
Text: as §1

CAL-27 = assay: modified propidium iodide cytotoxicity assay; settings: Homo sapiens, Head and neck
Text: as §1

RXF 393NL = assay: modified propidium iodide cytotoxicity assay; settings: Homo sapiens, Kidney
Text: as §1

PANC-1 = assay: modified propidium iodide cytotoxicity assay; settings: Homo sapiens, Pancreas
Text: as §1

PXF 1118L = assay: modified propidium iodide cytotoxicity assay; settings: Homo sapiens, Mesothelioma
Text: as §1

Saos-2 = assay: modified propidium iodide cytotoxicity assay; settings: Homo sapiens, Sarcoma
Text: as §1

MEXF 462NL = assay: modified propidium iodide cytotoxicity assay; settings: Homo sapiens, Melanoma
Text: as §1

LXFA 526L = assay: modified propidium iodide cytotoxicity assay; settings: Homo sapiens, Lung, non-small cell
Text: as §1

CXF 269L = assay: modified propidium iodide cytotoxicity assay; settings: Homo sapiens, Colon
Text: as §1

RXF 486L = assay: modified propidium iodide cytotoxicity assay; settings: Homo sapiens, Kidney
Text: as §1

LXFA 289L = assay: modified propidium iodide cytotoxicity assay; settings: Homo sapiens, Lung, non-small cell
Text: as §1

PXF 698L = assay: modified propidium iodide cytotoxicity assay; settings: Homo sapiens, Mesothelioma
Text: as §1

LXFA 629L = assay: modified propidium iodide cytotoxicity assay; settings: Homo sapiens, Lung, non-small cell
Text: as §1

PAXF 1657L = assay: modified propidium iodide cytotoxicity assay; settings: Homo sapiens, Pancreas
Text: as §1

LXFL 529L = assay: modified propidium iodide cytotoxicity assay; settings: Homo sapiens, Lung, non-small cell
Text: as §1

MKN45 = assay: modified propidium iodide cytotoxicity assay; settings: Homo sapiens, MKN-45, Stomach
Text: as §1

LIXF 575L = assay: modified propidium iodide cytotoxicity assay; settings: Homo sapiens, Liver
Text: as §1

HT-29 = assay: modified propidium iodide cytotoxicity assay; settings: Homo sapiens, Colon
Text: as §1

OVXF 899L = assay: modified propidium iodide cytotoxicity assay; settings: Homo sapiens, Ovary
Text: as §1

MCF-7 = assay: modified propidium iodide cytotoxicity assay; settings: Homo sapiens, MCF7, Breast
Text: as §1

LXFL1121L = assay: modified propidium iodide cytotoxicity assay; settings: Homo sapiens, LXFL 1121L, Lung, non-small cell
Text: as §1

PAXF 546L = assay: modified propidium iodide cytotoxicity assay; settings: Homo sapiens, Pancreas
Text: as §1

BXF 1218L = assay: modified propidium iodide cytotoxicity assay; settings: Homo sapiens, Bladder
Text: as §1

UXF 1138L = assay: modified propidium iodide cytotoxicity assay; settings: Homo sapiens, Uterus
Text: as §1

NCI-H460 = assay: modified propidium iodide cytotoxicity assay; settings: Homo sapiens, Lung, non-small cell
Text: as §1

NIH:OVCAR-3 = assay: modified propidium iodide cytotoxicity assay; settings: Homo sapiens, Ovary
Text: as §1

PC-3M = assay: modified propidium iodide cytotoxicity assay; settings: Homo sapiens, Prostate
Text: as §1

22Rv1 = assay: modified propidium iodide cytotoxicity assay; settings: Homo sapiens, Prostate
Text: as §1

MDA-MB-231 = assay: modified propidium iodide cytotoxicity assay; settings: Homo sapiens, Breast
Text: as §1

LNCaP = assay: modified propidium iodide cytotoxicity assay; settings: Homo sapiens, Prostate
Text: as §1

RKO = assay: modified propidium iodide cytotoxicity assay; settings: Homo sapiens, Colon
Text: as §1

DU-145 = assay: modified propidium iodide cytotoxicity assay; settings: Homo sapiens, Prostate
Text: as §1

MEXF 276L = assay: modified propidium iodide cytotoxicity assay; settings: Homo sapiens, MEXF276L, Melanoma
Text: as §1

DIFI = assay: modified propidium iodide cytotoxicity assay; settings: Homo sapiens, Colon
Text: as §1

BXF 1352L = assay: modified propidium iodide cytotoxicity assay; settings: Homo sapiens, Bladder
Text: as §1

GXF 251L = assay: modified propidium iodide cytotoxicity assay; settings: Homo sapiens, Stomach
Text: as §1

PXF 1752L = assay: modified propidium iodide cytotoxicity assay; settings: Homo sapiens, Mesothelioma
Text: as §1

RXF 1781L = assay: modified propidium iodide cytotoxicity assay; settings: Homo sapiens, Kidney
Text: as §1

MEXF 1341L = assay: modified propidium iodide cytotoxicity assay; settings: Homo sapiens, Melanoma
Text: as §1

Mycobacerium vaccae = assay: antimicrobial activity test; settings: at a concentration of 1.0 mg/mL
Bacillus subtilis = assay: antimicrobial activity test; settings: at a concentration of 1.0 mg/mL

For `CCCCCCCCCCCC/C=C\N(NC(=O)COC)C(=O)CCCCCCCCC` [Hydrazidomycin A, hydrazidomycin A], the antimicrobial activity (Pseudomonas aeruginosa) was “no antimicrobial activity”, the antimicrobial activity (Escherichia coli) was “no antimicrobial activity” and the antimicrobial activity (Staphylococcus aureus) was “no antimicrobial activity”. For the same compound, the IC50 [1] was 370 nM, the antimicrobial activity (Enterococcus faecalis) was “no antimicrobial activity” and the IC50 ([2]; Homo sapiens) was 860 nM. The IC50 ([2]; listed as (II)) was 857 nM, the “IC50 values in sensitive cell lines, fold lower than the mean IC50 of all cell lines tested” value ([2]; on average, sensitive cell lines versus all cell lines) was “about 4 fold” and the IC50 (HCT-116) was 758 nM. It also gave an IC50 (TE671) of 898 nM, an IC50 (MAXF 401NL) of 471 nM and an IC50 (CAL-27) of 716 nM. It also gave an IC50 (RXF 393NL) of 1110 nM, an IC50 (PANC-1) of 933 nM and an IC50 (PXF 1118L) of 2400 nM. It also gave an IC50 (Saos-2) of 1820 nM, an IC50 (MEXF 462NL) of 765 nM and an IC50 (LXFA 526L) of 1650 nM. For the same compound, the IC50 (CXF 269L) was 222 nM, the IC50 (RXF 486L) was 1620 nM and the IC50 (LXFA 289L) was 1100 nM. The IC50 (PXF 698L) was 982 nM, the IC50 (LXFA 629L) was 247 nM and the IC50 (PAXF 1657L) was 1910 nM. It also gave an IC50 (LXFL 529L) of 2120 nM, an IC50 (MKN45) of 676 nM and an IC50 (LIXF 575L) of 349 nM. For the same compound, the IC50 (HT-29) was 464 nM, the IC50 (OVXF 899L) was 1340 nM and the IC50 (MCF-7) was 782 nM. For the same compound, the IC50 (LXFL1121L) was 2310 nM, the IC50 (PAXF 546L) was 660 nM and the IC50 (BXF 1218L) was 2430 nM. The IC50 (UXF 1138L) was 893 nM, the IC50 (NCI-H460) was 2310 nM and the IC50 (NIH:OVCAR-3) was 1100 nM. The IC50 (PC-3M) was 105 nM, the IC50 (22Rv1) was 882 nM and the IC50 (MDA-MB-231) was 286 nM. It also gave an IC50 (LNCaP) of 957 nM, an IC50 (RKO) of 598 nM and an IC50 (DU-145) of 539 nM. The IC50 (MEXF 276L) was 1590 nM, the IC50 (DIFI) was 782 nM and the IC50 (BXF 1352L) was 2300 nM. The IC50 (GXF 251L) was 144 nM, the IC50 (PXF 1752L) was 1190 nM and the IC50 (RXF 1781L) was 982 nM. The IC50 (MEXF 1341L) was 936 nM, the antimicrobial activity (Mycobacerium vaccae) was “no antimicrobial activity” and the antimicrobial activity (Bacillus subtilis) was “no antimicrobial activity”.
